Source: PubChem BioAssay AID449764 (Southern Research Specialized Biocontainment Screening …, 2010)

system: Mycobacterium tuberculosis H37Rv growth inhibition, no glycerol; test: Mycobacterium tuberculosis H37Rv growth inhibition, no glycerol, confirmatory dose response (AID 449764); conditions: measured here: IC90 growth inhibition;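 note: growth read after 7 days of incubation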

Row | Compound | IC90
1 | COc1ccc(SC[C@H](Cc2ccccc2)N2CCN(CCc3ccccc3)CCC2=O)cc1 | 51.4 µM
2 | CCOc1ccc(-c2cc(C)[n+](CCc3ccc(OC)c(OC)c3)c(-c3ccc(OCC)cc3)c2)cc1 | 2.52 µM
3 | CCOc1cc2c(cc1OCC)-n1cccc1C(c1ccc(C(C)C)cc1)NC2 (stereo not given) | 28.7 µM
4 | CC1=NN(C(=O)c2ccc(Br)cc2)C(O)(c2ccccc2)C1 (stereo not given) | 52.6 µM
5 | O=C(NCCC1=CCCCC1)NC12CC3CC(CC(C3)C1)C2 | 1.58 µM
6 | CC1CCC(C(C)C)C(OC(=O)Cn2c(-c3ccc(F)cc3)[n+](C)c3ccccc32)C1 (stereo not given) | 14.4 µM
7 | O=C1CC(=C(c2ccccc2)c2ccccc2)C(=O)N1CCCCN1CCN(c2ccccc2)CC1 | 28.8 µM
8 | CCN(CC)C(=O)c1cc([N+](=O)[O-])cc2c1-c1ccc([N+](=O)[O-])cc1C2=C(C#N)C#N | 24.3 µM
9 | O=C(CN1CCCCC1)Nc1nnc(-c2ccc([N+](=O)[O-])cc2)s1 | 69.6 µM
10 | Cc1ccc(CN2CC(C(=O)OCc3ccccc3Cl)CC2=O)cc1 (stereo not given) | 29.6 µM
11 | O=c1c2c(-c3ccccc3)csc2ncn1/N=C/c1ccc(O)c([N+](=O)[O-])c1 | 59 µM
12 | CCn1cc(Br)c(C(=O)Nc2ccc(C(=O)OC(C)C)cc2)n1 | 59.5 µM
13 | CCOC(=O)c1cc(-c2csc(Nc3c(C)cc(C)cc3C)n2)on1 | 1.62 µM
14 | CCc1ccc(-c2csc(-c3c[nH]c4ccccc34)n2)cc1 | 21.3 µM
15 | CC(C)(C)c1ccc(OCCCC(=O)NC2=NCCS2)cc1 | 48.9 µM
16 | CSCCC(=O)N1CCCC(CNC(=O)c2ccc(-c3ccccc3)cc2)C1 (stereo not given) | 70.6 µM
17 | C=CCOC(=O)COc1ccc2c(C)c(CC)c(=O)oc2c1 | 1.68 µM
18 | COc1ccc(/C=N/OCC(=O)OCC(=O)N(C)c2ccccc2)cc1 | 51.8 µM
19 | CCCCCC1CC(CC(=O)NC(=S)Nc2ccc([N+](=O)[O-])cc2)C(=O)O1 (stereo not given) | > 100 µM
20 | CCOC(=O)COc1cc(O)c2c(=O)cc(-c3ccccc3)oc2c1 | 2.03 µM
21 | COC(=O)C1C(O)C(C)C(O)C(C)/C=C\C=C(/C)C(=O)Nc2c(C)c(OC(C)=O)c3c(c2O)C(=O)C(C)=C2OCOC(=C23)/C(C)=C/C(C)(O)C(O)C(C)C1O (stereo not given) | < 0.2 µM
22 | CCOC(=O)CSc1ccc(C(=O)Nc2ccc(OC)cc2)cn1 | > 100 µM

Row | Compound | IC90
23 | CCOc1cc(CNCCCN2CCOCC2)cc(Br)c1OCC(=O)Nc1cccc(C(F)(F)F)c1 | 32 µM
24 | c1ccc(CSc2ccc(-c3ccccn3)nn2)cc1 | 94.2 µM
25 | C(=N\Nc1ncnc2sc3c(c12)CCC3)/c1cccs1 | 54.2 µM
26 | COc1ccc(C2c3[nH]c4ccccc4c3CCN2C(=O)c2cc3ncccn3n2)c(F)c1 (stereo not given) | > 100 µM
27 | O=c1c(C=NCCN2CCNCC2)c(O)n(C2CCCCC2)c(=O)n1C1CCCCC1 | 32.5 µM
28 | CCCCCCCCSc1nnc(CSc2nc3nc(C)cc(C)n3n2)o1 | 6.27 µM
29 | O=C(CCl)NCc1cc(-c2ccc(Cl)cc2)no1 | > 100 µM
30 | O=C(CSC1=Nc2ccccc2C2=NC(c3ccccc3)C(=O)N12)NC1CCCCC1 (stereo not given) | 1.73 µM
31 | Cc1ccnc(Sc2ccc([N+](=O)[O-])cc2[N+](=O)[O-])n1 | 29.7 µM
32 | Cc1ccc(-c2cc(-c3ccccc3C)[nH]n2)c(O)c1 | > 100 µM
33 | CCOC(=O)N1CCN(c2nc(N(c3ccccc3)c3ccccc3)nc(-n3ccnc3)n2)CC1 | > 100 µM
34 | COC(=O)c1ccc(C(=O)OC)c(NC(=O)CSc2cccc[n+]2[O-])c1 | 6.25 µM
35 | Cc1nc(-c2ccccc2)sc1C(=O)/C=C/c1ccccc1 | 13.6 µM
36 | Cc1cccc(C)c1Nc1c(-c2ccccn2)nc2ccccn12 | 8.59 µM
37 | CCOc1ncccc1C(=O)OCC(=O)N1CCc2ccccc21 | > 100 µM
38 | CC(C)(C)OC(=O)NCCCCCc1nnc(SCc2ccc(F)cc2)o1 | > 100 µM
39 | CC(=O)N1CCN(c2ccc(OC[C@H]3CO[C@](Cn4ccnc4)(c4ccc(Cl)cc4Cl)O3)cc2)CC1 | 20.8 µM
40 | O=c1c(Cl)nc2cc(Cl)ccc2n1CCNc1ncc(C(F)(F)F)cc1Cl | 3.37 µM
41 | CCOC(=O)CSc1nc(N)c(C(=O)Nc2ccc(N(C)C)cc2)s1 | 9.77 µM
42 | COc1ccc(-c2cc3nc(CCl)[nH]c(=O)c3s2)cc1 | 6.45 µM
43 | COc1ccc(C2Oc3ccccc3C3=C2C(c2cccs2)n2ncnc2N3)cc1 (stereo not given) | > 100 µM
44 | CCOc1ccc(CN(C)CC(O)COC(c2ccc(OC)cc2)c2ccc(OC)cc2)cc1 (stereo not given) | 18.9 µM

Row | Compound | IC90
45 | COc1cccc(NC(=O)CNC(=O)Cn2cnc3sc4c(c3c2=O)CCCC4)c1 | > 100 µM
46 | CCN(CC)S(=O)(=O)c1ccc2[nH]cc(C(=O)NCCC3=CCCCC3)c(=O)c2c1 | > 100 µM
47 | CCOC(=O)CSc1cc(=O)n(C)c2cc(Cl)ccc12 | 18.3 µM
48 | Cc1ccc(-c2ccc(C3C(C#N)=C(N)Oc4n[nH]c(C)c43)o2)cc1 (stereo not given) | > 100 µM
49 | NC1=NC[C@H](CC2CCCCC2)N1CCc1cc(C(F)(F)F)cc(C(F)(F)F)c1 | 12.8 µM
50 | CCN(CCNCC(O)COc1ccccc1C(C)C)c1cccc(C)c1 (stereo not given) | 26 µM
51 | COc1ccc(C2=Nn3c(nnc3-c3ccccc3F)SC2)cc1OC1CCCC1 | 25.4 µM
52 | Cc1ccc(NS(=O)(=O)c2ccc(NC(=O)CN(c3cc([N+](=O)[O-])ccc3C)S(C)(=O)=O)cc2)c(C)c1 | > 100 µM
53 | COc1ccc(C(CCNCc2ccc(OC(C)C)cc2)C(C)C)cc1 (stereo not given) | 32.4 µM
54 | Cc1cccc(C)c1OCCCCc1c(C)n[nH]c1C | > 100 µM
55 | CCOC(=O)c1nnc(-c2ccccc2)nc1Sc1ccccc1Cl | > 100 µM
56 | CCN=c1scc(-c2ccco2)n1/N=C/c1ccc(OC)c(O)c1 | 35.1 µM
57 | CCOc1cc(/C=N/Nc2nc(Nc3ccccc3)nc(N3CCCCC3)n2)ccc1OCC(=O)O | 27.6 µM
58 | CCn1c(NC(=O)c2nn(C)cc2Br)nc2ccccc21 | 16.8 µM
59 | c1ccc(CN2CCC3(CCCc4ccccc43)CC2)cc1 | 15.8 µM
60 | C=C(C)C1Cc2c(C)nn(-c3nc(C)cc(C)n3)c2C1 (stereo not given) | 22.1 µM
61 | CN1CCN(Cn2cc(/C=C/C(=O)c3ccccc3)c3ccccc32)CC1 | 39.3 µM
62 | Cc1ccc(C(=O)N/N=C(/CC(=O)c2cccs2)C(F)(F)F)cc1 | 3.18 µM
63 | COCCn1nnnc1C(c1cc2cc(OC)ccc2[nH]c1=O)N1CCC(Cc2ccccc2)CC1 (stereo not given) | > 100 µM
64 | Oc1ccc(-[n+]2c(-c3ccccc3)cc(-c3ccccc3)cc2-c2ccccc2)cc1 | 17.2 µM
65 | N#Cc1ccc(CN2CCN(CC(=O)NCCc3ccc(Cl)cc3Cl)CC2)cc1 | 51.2 µM
66 | CCCc1cc(-c2nc(N)ncc2-c2ccc3c(c2)OCCCO3)c(O)cc1OC | 81 µM

Row | Compound | IC90
67 | c1ccc(/N=C2\N=C(Nc3ccccn3)c3ccccc32)nc1 | 3.02 µM
68 | CC(C(Sc1ccccc1N)c1ccccc1)[N+](=O)[O-] (stereo not given) | > 100 µM
69 | O=C(CCl)NN=C(c1ccccc1)c1ccccc1 | 2.09 µM
70 | CCCCC(CC)CN=C(N)NC(N)=NCCCCCCN=C(N)NC(N)=NCC(CC)CCCC (stereo not given) | 5.97 µM
71 | Cc1nnc(SCc2ccccc2Cl)n(N)c1=O | > 100 µM
72 | Cc1cc(-c2ccc(Cl)cc2)c2cnn(C(C)C)c2n1 | 58.1 µM
73 | COc1ccc(NC(=O)CSC2=C(C#N)C(c3ccco3)C(C(=O)Nc3nc4ccccc4s3)=C(C)N2)cc1 (stereo not given) | 16.4 µM
74 | CO[C@@H]1[C@@H](OC(N)=O)[C@@H](O)C(Oc2ccc3c(O)c(NC(=O)c4ccc(O)c(CC=C(C)C)c4)c(=O)oc3c2C)OC1(C)C (stereo not given in full) | 14.5 µM
75 | CN1CCN(C2Cc3ccccc3Sc3cc(C(F)(F)F)ccc32)CC1 (stereo not given) | 17.4 µM
76 | CSc1cccc(NC(=O)CCS(=O)(=O)c2cccc3nonc23)c1 | 9.26 µM
77 | O=C(/C=C/c1cccnc1)c1cccc(O)c1 | 24.1 µM
78 | NC(=O)c1ccc(N=Cc2ccc([N+](=O)[O-])s2)cc1 | 19.8 µM
79 | Nc1nc(Cl)cc(N2CCC(c3cc(-c4ccc(Cl)cc4Cl)n[nH]3)CC2)n1 | 30.1 µM
80 | c1ccc2c(c1)CCN(c1nc(CN3CCOCC3)nc3sc4c(c13)CCCC4)C2 | 52.7 µM
81 | O=C(C[n+]1ccc(C(=O)c2ccccc2)cc1)Nc1ccc(C(F)(F)F)cc1 | 26.7 µM
82 | Cc1cc(NC(=O)c2sccc2C)n(-c2nc3ccccc3[nH]2)n1 | > 100 µM
83 | Cc1csc(NC(=S)Nc2cccc(Cl)c2)n1 | 6.91 µM
84 | O=C(/C=C/c1cn(-c2ccccc2)nc1-c1cccnc1)c1ccco1 | 54.8 µM
85 | COc1cc(C2c3cc4c(cc3C(OC3OC5COC(c6cccs6)OC5C(O)C3O)C3COC(=O)C23)OCO4)cc(OC)c1O (stereo not given) | 35.4 µM
